In patent US20250302974A1, “LECTIN-DRUG CONJUGATES” (UNICHEM LABORATORIES LIMITED, priority 2021, published 2025):
Where two headings read alike, the source gives them in different places.

What was measured:
[1] = tested on: T24 human bladder carcinoma xenograft; assay: In vivo anti-tumor potential, xenograft model (tumor volume, TGI, %T/C, body weight, survival); conditions: 5 mg/kg, weekly once
Method: (§1) In vivo anti-tumor potential of compound of Formula 16 was evaluated using T24 human bladder carcinoma xenograft model in mice by assessing biological endpoints such as tumor growth and tumor growth inhibition.
(§2) Thirty-five healthy female nude mice bearing T24 tumor with volume of ˜100 mm3 were selected, randomized and allocated into five groups (G1-G5, n=7 animals per group). Body weight of each mouse was recorded on the day of randomization and daily till the end of the study. The tumor size was measured weekly twice from the day of test item/reference drug/vehicle dosing till the end of the experiment. Tumor size was measured by digital caliper (MITUTOYO, Japan) by measuring length and width. Body weight and tumor volume data was statistically analysed using two-way ANOVA (Bonferroni Test). Statistical analysis was conducted using PRISM software, version 5.01.p values of <0.05 were considered as statistically significant. Percentage survival proportions were analyzed by “Kaplan Meier” method.

[2] = tested on: T24 human bladder carcinoma xenograft; assay: Histopathological investigation of tumour tissue; assay type: in vivo, mice; conditions: 5 mg/kg, weekly once
Method: (§9) Effect of compound of Formula 16 was evaluated using T24 human bladder carcinoma xenograft model.

[3] = tested on: T24 human bladder carcinoma xenograft; assay: Effect on immune system (Th1 cytokines, IgM) in xenograft model; assay type: in vivo, mice
Method: as §9

[4] = tested on: T24 human bladder carcinoma xenograft; assay: In vivo anti-tumor potential, T24 human bladder carcinoma xenograft model in female nude mice; conditions: G2, 5 mg/kg, Weekly once
Method: as §1, §2

[5] = tested on: T24 human bladder carcinoma xenograft; assay: Histopathological investigation of tumour tissue, T24 xenograft model; assay type: in vivo, human T24 tumor in nude mice; conditions: G2, 5 mg/kg, Weekly once; 'Moderately Differentiated' wrapped over two lines
Method: as §9

Th1 cytokines; IgM = assay: Effect on immune system (Th1 cytokines, IgM), T24 xenograft model; assay type: in vivo, mice
Method: as §9

[6] = Cytotoxic effect by MTT assay, 48 h; conditions: human
Method: (§3) Cells were treated with Test Items at various concentrations (0.0001 μM-10 μM) for 48 h. The cells corresponding to Positive Control group were treated with Doxorubicin at a concentration ranging from 0.1 μM-100 μM. The Untreated cells were used as Control. After 48 h of incubation, the effect of Test Items on cytotoxicity of cells was determined by MTT assay, the plates were taken out and 20 μl of 5 mg/m1 of MTT 3-(4,5-dimethythiazol-2-yl)-2,5-diphenyl tetrazolium bromide solution was added to all the wells. Cells were incubated for 3 h at 37° C. The supernatant was aspirated. 150 μl of DMSO was added to each well to dissolve formazan crystals. The absorbance of each well was then read at 540 nm using Synergy HT micro plate reader.
(§4) The % Cytotoxicity was calculated using the formula:
(§5) Where, X=Absorbance of cells treated with Test Item; R=Absorbance of Control cells (Untreated cells maintained in growth medium only).
(§6) Selectivity Index was calculated using the formula:
(§7) SI=IC50 in Normal cell/IC50 in cancer cell.
(§8) Activity scores of the Selective Index values were categorized as: • Not selective (SI value ≤1) • Moderately selective (1<SI value <5) • Selective (SI value ≥5)

AGS Stomach = assay: Cytotoxic effect by MTT assay, 48 h; conditions: 48 h
Method: as §3, §4, §5, §6, §7, §8

HT29 Colon = assay: Cytotoxic effect by MTT assay, 48 h; conditions: Homo sapiens, HT-29, 48 h
Method: as §3, §4, §5, §6, §7, §8

KB Cervix = assay: Cytotoxic effect by MTT assay, 48 h; conditions: 48 h
Method: as §3, §4, §5, §6, §7, §8

MDA-MB-231 Breast = assay: Cytotoxic effect by MTT assay, 48 h; conditions: Homo sapiens, MDA-MB-231, 48 h
Method: as §3, §4, §5, §6, §7, §8

MG-63 Bone = assay: Cytotoxic effect by MTT assay, 48 h; conditions: Homo sapiens, MG-63, 48 h
Method: as §3, §4, §5, §6, §7, §8

PA-1 Ovary = assay: Cytotoxic effect by MTT assay, 48 h; conditions: 48 h
Method: as §3, §4, §5, §6, §7, §8

PANC-1 Pancreatic = assay: Cytotoxic effect by MTT assay, 48 h; conditions: Homo sapiens, PANC-1, 48 h, read-out: IC50 Values
Method: as §3, §4, §5, §6, §7, §8

T24 Bladder = assay: Cytotoxic effect by MTT assay, 48 h; conditions: Homo sapiens, 48 h
Method: as §3, §4, §5, §6, §7, §8

U251 MG Brain = assay: Cytotoxic effect by MTT assay, 48 h; conditions: Homo sapiens, U-251, 48 h
Method: as §3, §4, §5, §6, §7, §8

[7] = Cytotoxic effect by MTT assay, 48 h; conditions: human; remark: listed apart in the source
Method: as §3, §4, §5, §6, §7, §8

A549 Lungs = assay: Cytotoxic effect by MTT assay, 48 h; conditions: Homo sapiens, A549, 48 h, read-out: IC50 Values
Method: as §3, §4, §5, §6, §7, §8

[8] = Cytotoxic effect by MTT assay, 48 h
Method: as §3, §4, §5

PBMC Normal = assay: Cytotoxic effect by MTT assay, 48 h; conditions: PBMC, 48 h, read-out: IC50 Values
Method: as §3, §4, §5

[9] = read-out: Percent cytotoxicity wrt control

SMILES: N.N.[Cl][Pt][Cl] [Cisplatin]
- Percent survival [1]: 100%
- Tumor growth delay [1]: 10.5 days
- Percent T/C Day 22 ([1]; Day 22): 59.18%
- Percent TGI Day 22 ([1]; Day 22): 40.82%
- Tumor volume Day 22 ([1]; Day 22): 622.6 cu · mm
- Percent body weight change Day 22 ([1]; Day 22, nude mice bearing T24 tumor): 6.3%
- Apoptosis [2]: Mild
- Grade [2]: 2 (Grade 2 (Moderately Differentiated) - <25-50% cells anaplastic)
- Grade (differentiation in words) [2]: Moderately
- Immunoglobulins IgG ([3]; 5 mg/kg, i.p. (q7dX2)): 54 ng/mL
- Immunoglobulins IgM ([3]; 5 mg/kg, i.p. (q7dX2)): 18 ng/mL
- Th1 cytokines IFN gamma ([3]; 5 mg/kg, i.p. (q7dX2)): 80.8 pg/mL
- Th1 cytokines IL-2 ([3]; 5 mg/kg, i.p. (q7dX2)): 259.3 pg/mL
- Th2 cytokines IL-4 ([3]; 5 mg/kg, i.p. (q7dX2)): 60 pg/mL
- Th2 cytokines IL-10 ([3]; 5 mg/kg, i.p. (q7dX2)): BLQ
- IgM level ([3]; mouse, in vivo): reduction in IgM
- Percent T/C Day 22 (Test/Control) [4]: 59.18%
- Percent TGI Day 22 (Tumor Growth Inhibition) [4]: 40.82%
- Grade (differentiation) [5]: Moderately
- IFN gamma (Th1 cytokine) (Th1 cytokines; IgM; G2, 5 mg/kg, i.p. (q7dX2)): 80.8 pg/mL
- IL-2 (Th1 cytokine) (Th1 cytokines; IgM; G2, 5 mg/kg, i.p. (q7dX2)): 259.3 pg/mL
- IL-4 (Th2 cytokine) (Th1 cytokines; IgM; G2, 5 mg/kg, i.p. (q7dX2)): 60 pg/mL
- IL-10 (Th2 cytokine) (Th1 cytokines; IgM; G2, 5 mg/kg, i.p. (q7dX2)): BLQ
- IgG (Th1 cytokines; IgM; G2, 5 mg/kg, i.p. (q7dX2)): 54 ng/mL
- IgM (Th1 cytokines; IgM; G2, 5 mg/kg, i.p. (q7dX2)): 18 ng/mL
- IgM (Th1 cytokines; IgM; T24 xenograft model): reduction in IgM

SMILES: COc1cccc2c1C(=O)c1c(O)c3c(c(O)c1C2=O)C[C@@](O)(C(=O)CO)C[C@@H]3O[C@H]1C[C@H](N)[C@H](O)[C@H](C)O1 [Doxorubicin]
- cytotoxicity at 48 h, 0.1 µM [6]: -3.4%
- IC50 (AGS Stomach; read-out: IC50 Values): 4.3 µM
- cytotoxicity at 0.1 µM (AGS Stomach; [9]): 15.6%
- cytotoxicity at 1 µM (AGS Stomach; [9]): 72.4%
- cytotoxicity at 10 µM (AGS Stomach; [9]): 74.5%
- cytotoxicity at 50 µM (AGS Stomach; [9]): 74.8%
- cytotoxicity at 100 µM (AGS Stomach; [9]): 79%
- IC50 (HT29 Colon; read-out: IC50 Values): 35.3 µM
- cytotoxicity at 0.1 µM (HT29 Colon; [9]): 3.2%
- cytotoxicity at 1 µM (HT29 Colon; [9]): 1.7%
- cytotoxicity at 10 µM (HT29 Colon; [9]): 32.7%
- cytotoxicity at 50 µM (HT29 Colon; [9]): 61.9%
- cytotoxicity at 100 µM (HT29 Colon; [9]): 59.8%
- IC50 (KB Cervix; read-out: IC50 Values): 0.6 µM
- cytotoxicity at 0.1 µM (KB Cervix; [9]): 28.7%
- cytotoxicity at 1 µM (KB Cervix; [9]): 53.1%
- cytotoxicity at 10 µM (KB Cervix; [9]): 95.7%
- cytotoxicity at 50 µM (KB Cervix; [9]): 91.7%
- cytotoxicity at 100 µM (KB Cervix; [9]): 84.2%
- IC50 (MDA-MB-231 Breast; read-out: IC50 Values): 2.1 µM
- cytotoxicity at 0.1 µM (MDA-MB-231 Breast; [9]): 3.4%
- cytotoxicity at 1 µM (MDA-MB-231 Breast; [9]): 68%
- cytotoxicity at 10 µM (MDA-MB-231 Breast; [9]): 74.3%
- cytotoxicity at 50 µM (MDA-MB-231 Breast; [9]): 71.3%
- cytotoxicity at 100 µM (MDA-MB-231 Breast; [9]): 58%
- IC50 (MG-63 Bone; read-out: IC50 Values): 0.4 µM
- cytotoxicity at 0.1 µM (MG-63 Bone; [9]): 35.3%
- cytotoxicity at 1 µM (MG-63 Bone; [9]): 60.7%
- cytotoxicity at 10 µM (MG-63 Bone; [9]): 82%
- cytotoxicity at 50 µM (MG-63 Bone; [9]): 85.5%
- cytotoxicity at 100 µM (MG-63 Bone; [9]): 75.5%
- IC50 (PA-1 Ovary; read-out: IC50 Values): 1 µM
- cytotoxicity at 0.1 µM (PA-1 Ovary; [9]): 19.6%
- cytotoxicity at 1 µM (PA-1 Ovary; [9]): 62.6%
- cytotoxicity at 10 µM (PA-1 Ovary; [9]): 73.2%
- cytotoxicity at 50 µM (PA-1 Ovary; [9]): 79%
- cytotoxicity at 100 µM (PA-1 Ovary; [9]): 71.5%
- IC50 (PANC-1 Pancreatic): 8.2 µM
- IC50 (T24 Bladder; read-out: IC50 Values): 5.5 µM
- cytotoxicity at 0.1 µM (T24 Bladder; [9]): 21%
- cytotoxicity at 1 µM (T24 Bladder; [9]): 34.8%
- cytotoxicity at 10 µM (T24 Bladder; [9]): 72.8%
- cytotoxicity at 50 µM (T24 Bladder; [9]): 66.6%
- cytotoxicity at 100 µM (T24 Bladder; [9]): 52.7%
- IC50 (U251 MG Brain; read-out: IC50 Values): 8.1 µM
- cytotoxicity at 0.1 µM (U251 MG Brain; [9]): -13.5%
- cytotoxicity at 1 µM (U251 MG Brain; [9]): 41.7%
- cytotoxicity at 10 µM (U251 MG Brain; [9]): 57.9%
- cytotoxicity at 50 µM (U251 MG Brain; [9]): 71%
- cytotoxicity at 100 µM (U251 MG Brain; [9]): 65.6%
- cytotoxicity at 48 h, 0.1 µM [7]: 3.3%
- IC50 (A549 Lungs): 11 µM
- cytotoxicity at 48 h, 0.1 µM [8]: 5.3%
- cytotoxicity at 48 h, 1 µM [8]: 29.3%
- cytotoxicity at 48 h, 10 µM [8]: 37.4%
- cytotoxicity at 48 h, 50 µM [8]: 40.5%
- cytotoxicity at 48 h, 100 µM [8]: 37.1%
- IC50 (PBMC Normal): > 100 µM
